According to patent EP4563146A1 (IRBM S.P.A., priority 2023, dated 2025):
Read-outs that look alike come from different tables or passages of the source.

What was measured:
[1] = biological target: T1, West Nile Virus (WNV) NS2B-NS3 protease (West Nile virus, UniProt Q9Q6P4); assay: WNV protease inhibition assay; type: biochemical; conditions: Table 4; letter codes for IC50
T1 construct: NS2B1423-1470); purchased R&D 2907-SE-020
Source text: WNV protease inhibition assay

ZIKV replicon = assay: ZIKV replication inhibition assay (NanoLuc replicon in Vero cells); conditions: 72 h
[2] = Zika virus, Vero, read-out: ZIKA Cell_Nanoluc, Vero cells with stable ZIKV replicon, 72 h, Nano-Glo readout
[3] = read-out: ZIKA Cell_Nanoluc, Vero cells with stable ZIKV replicon, Nano-Glo readout
[4] = Zika virus, Vero, read-out: ZIKA Cell_Nanoluc

T1 sequence (Q9Q6P4 1423-1470): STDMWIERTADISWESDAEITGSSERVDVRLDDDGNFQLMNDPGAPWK
T1 sequence (Q9Q6P4 1506-1689): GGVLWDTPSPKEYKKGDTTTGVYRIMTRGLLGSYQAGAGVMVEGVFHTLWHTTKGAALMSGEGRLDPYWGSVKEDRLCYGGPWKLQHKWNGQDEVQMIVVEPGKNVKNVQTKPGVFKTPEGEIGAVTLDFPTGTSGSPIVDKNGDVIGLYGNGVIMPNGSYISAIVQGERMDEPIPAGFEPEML

For `CNC(=O)[C@H]1CCC[C@@H]([n+]2cc([N-]C(=O)Nc3cc(NC(=O)Cc4ccccc4C)cc(C(F)(F)F)c3)on2)C1` [Example 232, (3-((1R,3S)-3-(Methylcarbamoyl)cyclohexyl)-1,2,3-oxadiazol-3-ium-5-yl)((3-(2-(o-tolyl)acetamido)-5-(trifluoromethyl)phenyl)-carbamoyl)amide], the IC50 [1] was 0.1 to 1 µM and the EC50 (ZIKV replicon; [2]) was 1 to 20 µM.
With `Cc1ncnc(C)c1-c1ccc(C[n+]2cc([N-]C(=O)N[C@H]3CC[C@H](C(F)(F)F)C3)on2)cc1` [Example 233, (3-(4-(4,6-Dimethylpyrimidin-5-yl)benzyl)-1,2,3-oxadiazol-3-ium-5-yl)(((1S,3S)-3-(trifluoromethyl)cyclopentyl)carbamoyl)amide] the IC50 [1] was 0.1 to 1 µM and the EC50 (ZIKV replicon; [2]) was 0.1 to 1 µM.
`Cc1ccccc1CC(=O)Nc1cc(NC(=O)[N-]c2c[n+]([C@@H]3CCC[C@H](C(=O)N(C)C)C3)no2)cc(C(F)(F)F)c1` [Example 234, (3-((1R,3S)-3-(Dimethylcarbamoyl)cyclohexyl)-1,2,3-oxadiazol-3-ium-5-yl)((3-(2-(o-tolyl)-acetamido)-5-(trifluoromethyl)phenyl)-carbamoyl)amide] gave an IC50 [1] of 0.1 to 1 µM and an EC50 (ZIKV replicon; [2]) of 1 to 20 µM.
With `Cc1ccccc1CC(=O)Nc1cc(NC(=O)[N-]c2c[n+]([C@@H]3CCC[C@@H](C(N)=O)C3)no2)cc(C(F)(F)F)c1` [Example 235, (3-((1R,3R)-3-Carbamoylcyclohexyl)-1,2,3-oxadiazol-3-ium-5-yl)((3-(2-(o-tolyl)acetamido)-5-(trifluoromethyl)phenyl)carbamoyl)amide] the IC50 [1] was under 0.1 µM and the EC50 (ZIKV replicon; [3]) was 0.1 to 1 µM.
`O=C([N-]c1c[n+](Cc2ccc(-c3cncnc3)cc2)no1)Nc1ccnc(C(F)(F)F)c1` [Example 236, (3-(4-(Pyrimidin-5-yl)benzyl)-1,2,3-oxadiazol-3-ium-5-yl)((2-(trifluoromethyl)pyridin-4-yl)-carbamoyl)amide] was tested, and the IC50 [1] was 0.1 to 1 µM and the EC50 (ZIKV replicon; [2]) was 0.1 to 1 µM.
`Cc1nn(C)cc1-c1ccc(C[n+]2cc([N-]C(=O)Nc3ccnc(C(F)(F)F)c3)on2)cc1` [Example 237, (3-(4-(1,3-Dimethyl-1H-pyrazol-4-yl)benzyl)-1,2,3-oxadiazol-3-ium-5-yl)((2-(trifluoromethyl)-pyridin-4-yl)carbamoyl)amide] gave an IC50 [1] of 0.1 to 1 µM and an EC50 (ZIKV replicon; [2]) of 1 to 20 µM.
Molecule `Cc1cnn(C)c1-c1ccc(C[n+]2cc([N-]C(=O)Nc3ccc(C#N)c(C(F)(F)F)c3)on2)cc1` [Example 238, ((4-Cyano-3-(trifluoromethyl)phenyl)-carbamoyl)(3-(4-(1,4-dimethyl-1H-pyrazol-5-yl)benzyl)-1,2,3-oxadiazol-3-ium-5-yl)amide] has an IC50 [1] of 0.1 to 1 µM and an EC50 (ZIKV replicon; [2]) of 1 to 20 µM.
`Cc1cnn(C2COC2)c1-c1ccc(C[n+]2cc([N-]C(=O)Nc3ccnc(C(F)(F)F)c3)on2)cc1` [Example 239, (3-((4-(4-Methyl-2-(oxetan-3-yl)pyrazol-3-yl]phenyl)methyl)oxadiazol-3-ium-5-yl)-((2-(trifluoromethyl)pyridin-4-yl)carbamoyl)-azanide] gave an IC50 [1] of under 0.1 µM and an EC50 (ZIKV replicon; [4]) of under 0.1 µM.
Work on `Cc1ccccc1CC(=O)Nc1cc(NC(=O)[N-]c2c[n+]([C@H]3CCCC[C@H]3O)no2)cc(C(F)(F)F)c1` [Example 240, (3-((1S,2R)-2-Hydroxycyclohexyl)-1,2,3-oxadiazol-3-ium-5-yl)((3-(2-(o-tolyl)acetamido)-5-(trifluoromethyl)phenyl)carbamoyl)amide] yielded an IC50 [1] of 0.1 to 1 µM and an EC50 (ZIKV replicon; [2]) of 1 to 20 µM.
With `Cc1ncncc1[C@H]1CC[C@H](C[n+]2cc([N-]C(=O)Nc3ccnc(C(F)(F)F)c3)on2)CC1` [Example 241, (3-(((1R,4S)-4-(4-Methylpyrimidin-5-yl)cyclohexyl)methyl)-1,2,3-oxadiazol-3-ium-5-yl)((2-(trifluoromethyl)pyridin-4-yl)carbamoyl)-amide] the IC50 [1] was under 0.1 µM and the EC50 (ZIKV replicon; [4]) was 0.1 to 1 µM.
For `Cc1ccccc1CC(=O)Nc1cc(NC(=O)[N-]c2c[n+]([C@H]3CC[C@H](C(=O)N(C)C)CC3)no2)cc(C(F)(F)F)c1` [Example 248, (3-((1R,4R)-4-(Dimethylcarbamoyl)-cyclohexyl)-1,2,3-oxadiazol-3-ium-5-yl)((3-(2-(o-tolyl)acetamido)-5-(trifluoromethyl)phenyl)-carbamoyl)amide], the IC50 [1] was under 0.1 µM and the EC50 (ZIKV replicon; [4]) was 1 to 20 µM.
Molecule `COc1ccc(NC(=O)[N-]c2c[n+](Cc3ccc(-c4c(C)ncnc4C)cc3)no2)cc1C(F)(F)F` [Example 249, (3-(4-(4,6-Dimethylpyrimidin-5-yl)benzyl)-1,2,3-oxadiazol-3-ium-5-yl)((4-methoxy-3-(trifluoromethyl)phenyl)carbamoyl)amide] has an IC50 [1] of 0.1 to 1 µM and an EC50 (ZIKV replicon; [2]) of under 0.1 µM.
`Cc1cn(C2COC2)nc1-c1ccc(C[n+]2cc([N-]C(=O)Nc3ccnc(C(F)(F)F)c3)on2)cc1` [Example 250, (3-(4-(4-Methyl-1-(oxetan-3-yl)-1H-pyrazol-3-yl)benzyl)-1,2,3-oxadiazol-3-ium-5-yl)((2-(trifluoromethyl)pyridin-4-yl)carbamoyl)amide] was tested, and the IC50 [1] was 0.1 to 1 µM and the EC50 (ZIKV replicon; [2]) was 0.1 to 1 µM.
In the case of `CNC(=O)[C@H]1CC[C@H]([n+]2cc([N-]C(=O)Nc3cc(NC(=O)Cc4ccccc4C)cc(C(F)(F)F)c3)on2)CC1` [Example 251, rac-(3-((1R,4R)-4-(Methylcarbamoyl)-cyclohexyl)-1,2,3-oxadiazol-3-ium-5-yl)((3-(2-(o-tolyl)acetamido)-5-(trifluoromethyl)phenyl)-carbamoyl)amide], the IC50 [1] is reported as 0.1 to 1 µM and the EC50 (ZIKV replicon; [4]) is reported as 1 to 20 µM.
`Cc1ccccc1CC(=O)Nc1cc(NC(=O)[N-]c2c[n+]([C@H]3CC[C@H](C(=O)N4CCCC4)CC3)no2)cc(C(F)(F)F)c1` [Example 254, (3-((1R,4R)-4-(Pyrrolidine-1-carbonyl)-cyclohexyl)-1,2,3-oxadiazol-3-ium-5-yl)((3-(2-(o-tolyl)acetamido)-5-(trifluoromethyl)phenyl)-carbamoyl)amide] was tested, and the IC50 [1] was under 0.1 µM and the EC50 (ZIKV replicon; [4]) was 1 to 20 µM.
In the case of `Cc1ccccc1CC(=O)Nc1cc(NC(=O)[N-]c2c[n+]([C@@H]3CCC[C@H](C(N)=O)C3)no2)cc(C(F)(F)F)c1` [Example 255, (3-((1R,3S)-3-Carbamoylcyclohexyl)-1,2,3-oxadiazol-3-ium-5-yl)((3-(2-(o-tolyl)acetamido)-5-(trifluoromethyl)phenyl)carbamoyl)amide], the IC50 [1] is reported as 0.1 to 1 µM and the EC50 (ZIKV replicon; [2]) is reported as 1 to 20 µM.
With `Cc1ccccc1CC(=O)Nc1cc(NC(=O)[N-]c2c[n+]([C@H]3CC[C@H](N(C)C)CC3)no2)cc(C(F)(F)F)c1` [Example 257, (3-((1R,4R)-4-(Dimethylamino)cyclohexyl)-1,2,3-oxadiazol-3-ium-5-yl)((3-(2-(o-tolyl)-acetamido)-5-(trifluoromethyl)phenyl)-carbamoyl)amide] the IC50 [1] was under 0.1 µM and the EC50 (ZIKV replicon; [4]) was 1 to 20 µM.
Molecule `Cc1ncccc1-c1ccc(C[n+]2cc([N-]C(=O)Nc3ccnc(C(F)(F)F)c3)on2)cc1` [Example 258, (3-(4-(2-Methylpyridin-3-yl)benzyl)-1,2,3-oxadiazol-3-ium-5-yl)((2-(trifluoromethyl)pyridin-4-yl)carbamoyl)amide] has an IC50 [1] of under 0.1 µM and an EC50 (ZIKV replicon; [2]) of under 0.1 µM.
Work on `Cc1nc(-c2ccc(C[n+]3cc([N-]C(=O)Nc4ccnc(C(F)(F)F)c4)on3)cc2)c(C)s1` [Example 259, (3-(4-(2,5-Dimethylthiazol-4-yl)benzyl)-1,2,3-oxadiazol-3-ium-5-yl)((2-(trifluoromethyl)pyridin-4-yl)carbamoyl)amide] yielded an IC50 [1] of 0.1 to 1 µM and an EC50 (ZIKV replicon; [2]) of under 0.1 µM.
`Cc1nc(N)ncc1-c1ccc(C[n+]2cc([N-]C(=O)Nc3ccnc(C(F)(F)F)c3)on2)cc1` [Example 260, (3-(4-(2-Amino-4-methylpyrimidin-5-yl)benzyl)-1,2,3-oxadiazol-3-ium-5-yl)((2-(trifluoromethyl)pyridin-4-yl)carbamoyl)amide] gave an IC50 [1] of under 0.1 µM and an EC50 (ZIKV replicon; [2]) of under 0.1 µM.
`Cc1ncnc(C)c1-c1ccc(C[n+]2cc([N-]C(=O)Nc3ccc(O)c(C(F)(F)F)c3)on2)cc1` [Example 261, (3-(4-(4,6-Dimethylpyrimidin-5-yl)benzyl)-1,2,3-oxadiazol-3-ium-5-yl)((4-hydroxy-3-(trifluoromethyl)phenyl)carbamoyl)amide] showed an IC50 [1] of under 0.1 µM and an EC50 (ZIKV replicon; [2]) of under 0.1 µM.
Molecule `COC(=O)c1ccc(NC(=O)[N-]c2c[n+](Cc3ccc(-c4c(C)ncnc4C)cc3)no2)cc1C(F)(F)F` [Example 262, (3-(4-(4,6-Dimethylpyrimidin-5-yl)benzyl)-1,2,3-oxadiazol-3-ium-5-yl)((4-(methoxy-carbonyl)-3-(trifluoromethyl)phenyl)carbamoyl) amide] has an IC50 [1] of 0.1 to 1 µM and an EC50 (ZIKV replicon; [2]) of 0.1 to 1 µM.
In the case of `Cc1ccnc(C)c1-c1ccc(C[n+]2cc([N-]C(=O)Nc3ccnc(C(F)(F)F)c3)on2)cc1` [Example 263, (3-(4-(2,4-Dimethylpyridin-3-yl)benzyl)-1,2,3-oxadiazol-3-ium-5-yl)((2-(trifluoromethyl)pyridin-4-yl)carbamoyl)amide], the IC50 [1] is reported as under 0.1 µM and the EC50 (ZIKV replicon; [2]) is reported as under 0.1 µM.
With `CC(=O)Nc1ccc(NC(=O)[N-]c2c[n+](Cc3ccc(-c4c(C)ncnc4C)cc3)no2)cc1C(F)(F)F` [Example 264, ((4-Acetamido-3-(trifluoromethyl)phenyl)-carbamoyl)(3-(4-(4,6-dimethylpyrimidin-5-yl)benzyl)-1,2,3-oxadiazol-3-ium-5-yl)amide] the IC50 [1] was under 0.1 µM and the EC50 (ZIKV replicon; [2]) was under 0.1 µM.
In the case of `Cc1ccccc1CC(=O)Nc1cc(NC(=O)[N-]c2c[n+](C3CCCC(CO)C3)no2)cc(C(F)(F)F)c1` (stereo not shown) [Example 265, (3-(3-(Hydroxymethyl)cyclohexyl)-1,2,3-oxadiazol-3-ium-5-yl)((3-(2-(o-tolyl)acetamido)-5-(trifluoromethyl)phenyl)carbamoyl)amide], the IC50 [1] is reported as 0.1 to 1 µM and the EC50 (ZIKV replicon; [2]) is reported as 1 to 20 µM.
`O=C([N-]c1c[n+](Cc2ccc(-c3cncnc3)cc2)no1)Nc1ccnc(C(F)(F)F)c1` [Example 266, (3-(4-(Pyrimidin-5-yl)benzyl)-1,2,3-oxadiazol-3-ium-5-yl)((2-(trifluoromethyl)pyridin-4-yl)carbamoyl)amide] was tested, and the IC50 [1] was under 0.1 µM and the EC50 (ZIKV replicon; [3]) was under 0.1 µM.
